As usually defined, the CC50 is the concentration that lowers cell viability or growth by half. Higher therefore signals lower toxicity to the cells. As usually defined, the IC50 is the concentration at which inhibition is half-maximal. For orientation: inhibition means how much of the control response was suppressed.

The record followed here is publication PMC1660542, “Structure-based discovery of inhibitors of the YycG histidine kinase: New chemical leads to combat Staphylococcus epidermidis infections” (BMC Microbiology, 2006).

SMILES strings stand for the structures.

Data set [1] is described as follows: Cytotoxicity on Vero cell (MTT, Cell Proliferation Kit I). Format: cell-based, African Green-monkey. The conditions noted are these: African green monkey, Vero cells, highest concentration tested 200 μM. As for the experimental part:
(§1) Cytotoxicity of the antibacterial compounds on cultured Vero cell was measured by using the Cell Proliferation Kit I (MTT) (Roche, Indianapolis, USA) according to the manufacturer's protocol. Addition of DMSO (1%) in the medium produced a slight cytotoxicity on Vero cell, which could easily be corrected for. Each assay was performed in quadruplicate and repeated three times. The results were converted to percentage of the control (cells only treated with 1% DMSO) and CC50 (concentrations that produce a 50% cytotoxicity effect on Vero cell) was calculated by the Origin v7.0 software (OriginLab, Northampton, USA). Hemolytic activities of the compounds were determined by using healthy human erythrocytes. The erythrocytes were washed three times in sterile saline and resuspended to 5% prior to the assay. […] Cells without compound treatment and cells with 1% Triton-100 treatment were used as 0% and 100% hemolysis controls, respectively. The cell suspensions were incubated for 1 hour at 37°C and centrifuged at 1000×g for 10 min. Volumes of 100 μl supernatants were transferred to another sterile plate and hemoglobin release from the cells was determined at 570 nm. […] The hemolysis assays were repeated twice.

Data set [2] has as its system S. aureus ATCC29213. The data set is described as follows: MIC assay (broth dilution in tubes, CLSI). Format: cell-based, Staphylococcus aureus. The conditions noted are these: Staphylococcus aureus; S. aureus ATCC29213; read-out: Minimal inhibitory concentration (MIC). An excerpt:
(§2) Staphylococcus epidermidis ATCC12228 and RP62A strains were purchased from the American Type Culture Collection (ATCC, Manassas, USA). Staphylococcus aureus ATCC29213, Escherichia coli ATCC25922 and Pseudomonas aeruginosa ATCC27853 were kindly provided by Dr. Bijie Hu at Zhongshan Hospital (Shanghai, China). S. epidermidis strains se527, se886, se847, seG203, Streptococcus pyogenes strain 144, and Streptococcus mutans strain 128 were all clinical isolates from Zhongshan Hospital and Huashan Hospital (Shanghai, China). If not stated otherwise, S. epidermidis and S. aureus strains were grown at 37°C in tryptic soy broth (TSB, Oxoid) containing 0.25% glucose, E. coli and P. aeruginosa strains were grown at 37°C in Luria-Bertani (LB, Oxoid).
(§3) MIC assays for the antibacterial activities of the compounds were performed according to the broth micro-dilution (in tubes) method of the Clinical and Laboratory Standards Institute (CLSI) of America. The Minimal Bactericidal Concentration (MBC) was obtained by subculturing 100 μl from each negative (no visible bacterial growth) tube from the MIC assay, onto substance-free Mueller-Hinton agar plates. The plates were incubated at 37°C for 24 hours, and the MBC was defined as the lowest concentration of substance which produced subcultures growing no more than five colonies on each plate.
(In general: In broth dilution the organism is exposed to a series of concentrations in liquid medium.)

Data set [3] concerns the target T1, YycG' protein (Staphylococcus epidermidis, UniProt Q8CU87).
T1 construct: of YycG (370aa to 610aa) was amplified by PCR; His-tag (pET28a) (N); made in house; host or cells: E. coli BL21 (pET28a, pETYycG')
The data set is described as follows: Inhibition of YycG' ATPase activity / autophosphorylation (Kinase-Glo Luminescent Kinase Assay). Format: biochemical. The conditions noted are these: 3 μM ATP. As for the experimental part:
The inhibitory activities of the compounds for the ATPase activity of the YycG' protein was measured using the Kinase-Glo™ Luminescent Kinase Assay (Promega, Madison, USA). Briefly, 4 μg YycG' protein was pre-incubated with a series of dilution of compounds in the reaction buffer (40 mM Tris [pH 7.5], 20 mM MgCl2, and 0.1 mg/ml BSA), at 25°C for 30 min. Then 3 μM ATP was added for another incubation of 30 min at 25°C, and Kinase-Glo™ Reagent was added to detect the rest amount of ATP, as recorded from luminescence measurements (RLU). In parallel, theYycG' protein with no addition of compounds was used as the control. The rate of inhibiting protein phosphorylation (Rp) by the compounds was calculated from equation 1:
Rp=RLU(YycG^′+compound+ATP+Reagent)−RLU(YycG^′+ATP+Reagent)/RLU(ATP+Reagent)−RLU(YycG^′+ATP+Reagent)×100% (1) MathType@MTEF@5@5@+=feaafiart1ev1aaatCvAUfKttLearuWrP9MDH5MBPbIqV92AaeXatLxBI9gBaebbnrfifHhDYfgasaacH8akY=wiFfYdH8Gipec8Eeeu0xXdbba9frFj0=OqFfea0dXdd9vqai=hGuQ8kuc9pgc9s8qqaq=dirpe0xb9q8qiLsFr0=vr0=vr0dc8meaabaqaciaacaGaaeqabaqabeGadaaakeaacqqGsbGudaWgaaWcbaGaeeiCaahabeaakiabg2da9maalaaabaGaeeOuaiLaeeitaWKaeeyvauLaeiikaGIaeeywaKLaeeyEaKNaee4yamMafe4raCKbauaacqGHRaWkcqqGJbWycqqGVbWBcqqGTbqBcqqGWbaCcqqGVbWBcqqG1bqDcqqGUbGBcqqGKbazcqGHRaWkcqqGbbqqcqqGubavcqqGqbaucqGHRaWkcqqGsbGucqqGLbqzcqqGHbqycqqGNbWzcqqGLbqzcqqGUbGBcqqG0baDcqGGPaqkcqGHsislcqqGsbGucqqGmbatcqqGvbqvcqGGOaakcqqGzbqwcqqG5bqEcqqGJbWycuqGhbWrgaqbaiabgUcaRiabbgeabjabbsfaujabbcfaqjabgUcaRiabbkfasjabbwgaLjabbggaHjabbEgaNjabbwgaLjabb6gaUjabbsha0jabcMcaPaqaaiabbkfasjabbYeamjabbwfavjabcIcaOiabbgeabjabbsfaujabbcfaqjabgUcaRiabbkfasjabbwgaLjabbggaHjabbEgaNjabbwgaLjabb6gaUjabbsha0jabcMcaPiabgkHiTiabbkfasjabbYeamjabbwfavjabcIcaOiabbMfazjabbMha5jabbogaJjqbbEeahzaafaGaey4kaSIaeeyqaeKaeeivaqLaeeiuaaLaey4kaSIaeeOuaiLaeeyzauMaeeyyaeMaee4zaCMaeeyzauMaeeOBa4MaeeiDaqNaeiykaKcaaiabgEna0kabigdaXiabicdaWiabicdaWiabcwcaLiaaxMaacaWLjaWaaeWaaeaacqaIXaqmaiaawIcacaGLPaaaaaa@A46C@
IC50 (the concentration of inhibition of 50% YycG' protein autophosphorylation) was obtained by using the Origin v7.0 software (OriginLab, Northampton, USA).
For orientation: Kinase-Glo reads ATP consumption through a luciferase reaction.

For data set [4], the system named is S. epidermidis RP62A. Description: MIC assay (broth dilution in tubes, CLSI). Format: cell-based. The conditions noted are these: Staphylococcus epidermidis; S. epidermidis RP62A (biofilm-forming strain); read-out: Minimal inhibitory concentration (MIC).
Description: as §2, §3

Data set [5] is described as follows: Erythrocyte hemolysis assay.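 Also: compounds tested at their MIC and at 4× MIC.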 Format: cell-based, human. The conditions noted are these: human, erythrocytes (5% suspension), 1 hour, 37°C. As for the experimental part: as §1

T1 sequence (Q8CU87 370-610): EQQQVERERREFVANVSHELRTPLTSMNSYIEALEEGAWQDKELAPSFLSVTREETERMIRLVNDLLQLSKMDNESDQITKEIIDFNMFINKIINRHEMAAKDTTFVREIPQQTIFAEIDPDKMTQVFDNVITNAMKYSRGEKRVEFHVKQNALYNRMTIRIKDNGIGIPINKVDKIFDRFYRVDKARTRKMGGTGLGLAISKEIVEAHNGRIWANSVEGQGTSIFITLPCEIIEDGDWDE

Regarding `Cc1ccc(NC(=O)CN2C(=O)S/C(=C\c3ccc(OCc4cccc(C(O)O)c4)cc3)C2=O)cc1` [Compound 7], the CC50 in data set [1] was above 200 µM. Also, the MIC in data set [2] and in data set [4] was above 200 µM in each case. Besides, the IC50 in data set [3] (4 μg YycG' protein, read-out: IC50 for YycG') came to 6.5 µM. Besides, in data set [3] (compound 50 μM, 4 μg protein, read-out: Inhibition of YycG' phosphorylation (decrease of ATPase activity)), the inhibition at 50 µM worked out at 86%. For the same compound, the hemolysis at 1 h in data set [5] (at 4 × MIC (number in parenthesis)) and in data set [5] (at MIC for S. epidermidis ATCC12228) was below 0.1% each time.
